Reference: patent US11319298B2 (Merck Sharp & Dohme Corp., priority 2016, dated 2022)

biological target: T1, human M4 muscarinic acetylcholine receptor (Homo sapiens, UniProt P08173); assay: human FLIPR-based M4 PAM assay, CHO-K1 cells stably transfected with human M4 receptor and chimeric G-protein Gαqi5; type: cell-based; conditions: inflection point (IP) of dose response curve; acetylcholine added at 20% of maximum response; CHO-K1 human M4/Gαqi5, FLIPR Tetra
T1 construct: expressed in transfected cells; host or cells: CHO-K1
T1 sequence (P08173 1-479): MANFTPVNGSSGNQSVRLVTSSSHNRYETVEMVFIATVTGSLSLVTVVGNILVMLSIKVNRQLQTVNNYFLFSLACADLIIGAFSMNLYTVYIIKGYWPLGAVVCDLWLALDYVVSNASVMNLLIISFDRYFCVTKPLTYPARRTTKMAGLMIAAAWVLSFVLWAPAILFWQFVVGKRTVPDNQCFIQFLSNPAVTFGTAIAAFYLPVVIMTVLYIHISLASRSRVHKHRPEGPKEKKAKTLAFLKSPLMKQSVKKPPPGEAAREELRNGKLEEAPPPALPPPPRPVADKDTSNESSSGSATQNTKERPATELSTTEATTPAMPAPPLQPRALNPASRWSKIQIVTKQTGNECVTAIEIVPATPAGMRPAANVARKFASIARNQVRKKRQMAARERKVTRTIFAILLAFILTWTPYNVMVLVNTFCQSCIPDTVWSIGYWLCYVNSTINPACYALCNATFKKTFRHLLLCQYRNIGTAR
Procedure: In a typical experiment the M4 muscarinic acetylcholine receptor modulating activity of the compounds of the present invention was determined in accordance with the following experimental method. CHO-K1 cells stably transfected with human M4 receptor and chimeric G-protein Gαqi5 (Coward P, et al., Analytical Biochemistry, 270:242-248 (1999)) are thawed from liquid N2 storage, resuspended in growth medium, plated in black, clear bottom 384 well plates, and incubated 16-20 hours at 37° C., 5% CO2. On the day of assay, growth medium is removed, the cells are washed 2 times with wash buffer, and cells are incubated in dye loading buffer at 37° C., 5% CO2 for ˜1 hour. Following dye loading the cell plates are placed in a FLIPR Tetra instrument and while monitoring dye fluorescence (excitation […]), 10 uL of test substance at increasing concentrations is added, and fluorescence values are recorded for 4 min. Next, 10 uL of acetylcholine is added (final concentration calculated so as to achieve 20% of the maximum acetycholine response), and the fluorescence reading is continued for 3.5 min. In some cases, a third addition of acetylcholine (final concentration calculated to achieve 70% of the maximal acetylcholine response) is performed. The resulting dose response curves are fit to a 4 parameter logistic equation and the final result is determined as the inflection point (IP) of the curve
CHO-K1 cells stably transfected with human M4 receptor and chimeric G-protein Gαqi5 are thawed from liquid N2 storage, resuspended in growth medium, plated in black, clear bottom 384 well plates, and incubated 16-20 hours at 37° C., 5% CO2.
On the day of assay, growth medium is removed, the cells are washed 2 times with wash buffer, and cells are incubated in dye loading buffer at 37° C., 5% CO2 for ˜1 h. Following dye loading the cell plates are placed in a FLIPR Tetra instrument and while monitoring dye fluorescence ([…]), 10 uL of test substance at increasing concentrations is added, and fluorescence values are recorded for 4 min. Next, 10 uL of acetylcholine is added (final concentration calculated so as to achieve 20% of the maximum acetycholine response), and the fluorescence reading is continued for 3.5 min. In some cases, a third addition of acetylcholine (final concentration calculated to achieve 70% of the maximal acetylcholine response) is performed.

EC50 [nM] | Structure (SMILES)
533 | COc1ccc(OC2CCN(c3nc(C(=O)NNC(C)C)nc(Cl)c3C)CC2)cn1 [Example 209, 4-chloro-N′-isopropyl-6-(4-((6-methoxypyridin-3-yl)oxy)piperidin-1-yl)-5-methylpyrimidine-2-carbohydrazide]
84 | COCc1nc(Cl)c(C)c(N2CCC(Oc3ccc(OC)cc3)CC2)n1 [Example 61, 4-chloro-2-(methoxymethyl)-6-(4-(4-methoxyphenoxy)piperidin-1-yl)-5-methylpyrimidine]
126 | Cc1c(Cl)nc(CO)nc1N1CCC(Oc2ccc3c(ccn3C)c2)CC1 [Example 29, (4-chloro-5-methyl-6-(4-((1-methyl-1H-indol-5-yl)oxy)piperidin-1-yl)pyrimidin-2-yl)methanol]
2960 | COc1ccc(OC2CCN(c3nc(C)c(C(N)=O)cc3C)CC2)cn1 [Example 191, 6-{4-[(6-methoxypyridin-3-yl)oxy]piperidin-1-yl}-2,5-dimethypyridine-3-carboxamide]
1830 | COc1ccc(OC2CCN(c3nc(SC)nc(Cl)c3C)CC2)cc1 [Example 16, 4-chloro-6-(4-(4-methoxyphenoxy)piperidin-1-yl)-5-methyl-2-(methylthio)pyrimidine]
915 | COc1ccc(OC2CCN(c3nnc(C(=O)NCc4ccc(F)cc4Cl)cc3C)CC2)cn1 [Example 183, N-(2-chloro-4-fluorobenzyl)-6-{4-[(6-methoxypyridin-3-yl)oxy]piperidin-1-yl}-5-methylpyridazine-3-carboxamide]
893 | COc1ccc([C@H](C)NC(=O)c2cc(C)c(N3CCC(Oc4ccc(OC)nc4)CC3)nn2)cc1 [Example 182, N-[(1S)-1-(4-methoxyphenyl)ethyl]-6-{4-[(6-methoxypyridin-3-yl)oxy]piperidin-1-yl}-5-methylpyridazine-3-carboxamide]
101 | COc1ccc(OC2CCN(c3nnc(C(=O)NCCc4cn[nH]c4)cc3C)CC2)cn1 [Example 123, 6-{4-[(6-methoxypyridin-3-yl)oxy]piperidin-1-yl}-5-methyl-N-[2-(1H-pyrazol-4-yl)ethyl]pyridazine-3-carboxamide]
302 | COc1ccc(OC2CCN(c3nnc(C(=O)NC4CC4)cc3C)CC2)cn1 [Example 161, N-cyclopropyl-6-{4-[(6-methoxypyridin-3-yl)oxy]piperidin-1-yl}-5-methylpyridazine-3-carboxamide]
997 | COc1ccc(OC2CCN(c3nc(C(=O)NC4CCc5ccncc5C4)nc(Cl)c3C)CC2)cn1 (stereo not drawn) [Example 216, 4-chloro-6-(4-((6-methoxypyridin-3-yl)oxy)piperidin-1-yl)-5-methyl-N-(5,6,7,8-tetrahydroisoquinolin-7-yl)pyrimidine-2-carboxamide]
325 | Cc1c(Cl)nc(CO)nc1N1CCC(Oc2cccc(S(C)(=O)=O)c2)CC1 [Example 42, (4-chloro-5-methyl-6-(4-(3-(methylsulfonyl)phenoxy)piepridin-1-yl)pyrimidin-2-yl)methanol]
282 | COc1ccc(OC2CCN(c3nnc(C(=O)NCc4ccccc4OC)cc3C)CC2)cn1 [Example 158, N-(2-methoxybenzyl)-6-{4-[(6-methoxypyridin-3-yl)oxy]piperidin-1-yl}-5-methylpyridazine-3-carboxamide]
99 | Cc1ncc(C)c(N2CCC(Oc3ccc(OCCO)nc3)CC2)n1 [Example 64, 2-((5-((1-(2,5-dimethylpyrimidin-4-yl)piperidin-4-yl)oxy)pyridin-2-yl)oxy)ethan-1-ol]
228 | COc1ccc(OC2CCN(c3nnc(C(=O)NCc4c(C)nc5ccccn45)cc3C)CC2)cn1 [Example 149, 6-{4-[(6-methoxypyridin-3-yl)oxy]piperidin-1-yl}-5-methyl-N-[(2-methylimidazo[1,2-a]pyridin-3-yl)methyl]pyridazine-3-carboxamide]

More lines, now with the values behind:

Structure (SMILES) | EC50 [nM]
COc1ccc(O[C@@H]2CCN(c3nc(C)ncc3C)C[C@@H]2F)cn1 [Example 84, 4-((3S,4R)-3-fluoro-4-((6-methoxypyridin-3-yl)oxy)piperidin-1-yl)-2,5-dimethylpyrimidine] | 574
Cc1c(Cl)nc(CO)nc1N1CCC(Oc2ccc3c(c2)C(=O)CCC3)CC1 [Example 38, 7-((1-(6-chloro-2-(hydroxymethyl)-5-methylpyrimidin-4-yl)piperidin-4-yl)oxy)-3,4-dihydronaphthalen-1(2H)-one] | 252
Cc1cc(C(=O)NCc2ccncc2)nnc1N1CCC(Oc2cccc(C#N)c2)CC1 [Example 204A, 6-(4-(3-cyanophenoxy)piperidin-1-yl)-5-methyl-N-(pyridin-4-ylmethyl)pyridazine-3-carboxamide] | 99
Cc1ncc(C)c(N2CCC(Oc3ccc4c(c3)C(=O)NC4)CC2)n1 [Example 100, 6-((1-(2,5-dimethylpyrimidin-4-yl)piperidin-4-yl)oxy)isoindolin-1-one] | 674
COc1ncc(C#N)c(N2CCC(Oc3cccc(C#N)c3)CC2)n1 [Example 88, 4-(4-(3-cyanophenoxy)piperidin-1-yl)-2-methoxypyrimidine-5-carbonitrile] | 1530
Cc1ncc(C)c(N2CCC(Oc3ccc4[nH]ncc4c3)CC2)n1 [Example 59, 5-((1-(2,5-dimethylpyrimidin-4-yl)piperidin-4-yl)oxy)-1H-indazole] | 66
Cc1cc(C(=O)N2CCc3snc(-c4cccnc4)c3C2)nnc1N1CCC(Oc2cccc(C#N)c2)CC1 [Example 204, 3-[(1-{4-methyl-6-[(3-pyridin-3-yl-6,7-dihydroisothiazolo[4,5-c]pyridin-5(4H)-yl)carbonyl]pyridazin-3-yl}piperidin-4-yl)oxy]benzonitrile] | 1150
Cc1c(Cl)ncnc1N1CCC(Oc2cccnc2)CC1 [Example 14, 4-chloro-5-methyl-6-(4-(pyridin-3-yloxy)piperidin-1-yl)pyrimidine] | 609
Cc1cc(C(=O)NCc2ccncc2)nnc1N1CCC(Oc2cccc(C#N)c2)CC1 [Example 106, 6-(4-(3-Cyanophenoxy)piperidin-1-yl)-5-methyl-N-(pyridin-4-ylmethyl)pyridazine-3-carboxamide] | 33
Cc1c(Cl)nc(C2CC2)nc1N1CCC(Oc2cccnc2)CC1 [Example 95B, 4-chloro-2-cyclopropyl-5-methyl-6-(4-(pyridin-3-yloxy)piperidin-1-yl)pyrimidine] | 435
Cc1cc(C(=O)NCc2ccncc2)nnc1N1CCC(Oc2ccc3[nH]ncc3c2)CC1 [Example 111, 6-[4-(1H-indazol-5-yloxy)piperidin-1-yl]-5-methyl-N-(pyridin-4-ylmethyl)pyridazine-3-carboxamide] | 40
CCc1ncnc(N2CCC(Oc3cccc(C#N)c3)CC2)c1C [Example 261, 3-((1-(6-Ethyl-5-methylpyrimidin-4-yl)piperidin-4-yl)oxy)benzonitrile] | 425
Cc1cc(C(=O)NC2C3CC2C3)nnc1N1CCC(Oc2cccc(C#N)c2)CC1 (stereo not drawn) [Example 117, N-bicyclo[1.1.1]pent-2-yl-6-[4-(3-cyanophenoxy)piperidin-1-yl]-5-methylpyridazine-3-carboxamide] | 85
Cc1cc(C(=O)NC2C3CC2C3)nnc1N1CCC(Oc2ccc3c(c2)OCCO3)CC1 (stereo not drawn) [Example 131, N-bicyclo[1.1.1]pent-2-yl-6-[4-(2,3-dihydro-1,4-benzodioxin-6-yloxy)piperidin-1-yl]-5-methylpyridazine-3-carboxamide] | 127
Cc1c(C#N)nc(CO)nc1N1CCC(Oc2ccc3c(c2)C(=O)OC3)CC1 [Example 260, 2-(hydroxymethyl)-5-methyl-6-(4-((3-oxo-1,3-dihydroisobenzofuran-5-yl)oxy)piperidin-1-yl)pyrimidine-4-carbonitrile] | 2560
COC(=O)Cc1c(Cl)ncnc1N1CCC(Oc2ccc(OC)cc2)CC1 [Example 17, methyl 2-(4-chloro-6-(4-(4-methoxyphenoxy)piperidin-1-yl)pyrimidin-5-yl)acetate] | 2670
